US20230159510A1, “NOVEL PRMT5 INHIBITORS” (AMGEN INC., priority 2020, published 2023)
pIC50: −log10 of the molar value. Like-named read-outs stand apart in the source and are kept apart here.

Columns and labels:
HCT116 MTAP null cells = experiment: HCT116 proliferation assay, MTAP null cells (CellTiter-Glo, 6 days); format: cell-based; settings: read-out: Protif_ HCT116-MTAP null IC50
Summary of the method: (§1)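 Both lines grow in RPMI 1640 containing 10% fetal bovine serum. After an overnight rest, they receive compound at up to 1 or 10 µM in threefold serial dilutions, with vehicle wells holding DMSO only.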

HCT116 WT cells = experiment: HCT116 proliferation assay, WT cells (CellTiter-Glo, 6 days); format: cell-based; settings: read-out: Prolif_HCT116-WT IC50
Summary of the method: as §1

Row | Compound | pIC50 (HCT116 MTAP null cells; HCT116-MTAP null, 144 h) | pIC50 (HCT116 WT cells; Homo sapiens, HCT-116, 144 h) | pIC50 (HCT116 MTAP null cells) | pIC50 (HCT116 WT cells)
1 | Cc1cc2cc(C(=O)N(Cc3ccc(N4CCOCC4)cn3)[C@H](C)c3ncccn3)ccc2nc1N [Example 764, (R)-2-amino-3-methyl-N-((5-morpholinopyridin-2-yl)methyl)-N-(1-(pyrimidin-2-yl)ethyl)quinoline-6-carboxamide] | 6.54 | 5.37 | – | –
2 | CCc1csc(CN(Cc2ccc(C(F)(F)F)cn2)C(=O)c2ccc3nc(N)c(C)cc3c2)n1 [Example 586, 2-amino-N-((4-ethylthiazol-2-yl)methyl)-3-methyl-N-((5-(trifluoromethyl)pyridin-2-yl)methyl)quinoline-6-carboxamide] | 6.46 | 5.26 | – | –
3 | Cc1cc2cc(C(=O)N(Cc3ccc(N4CCCCC4)cc3)CC3(C#N)CC3)ccc2nc1N [Example 574, 2-amino-N-((1-cyanocyclopropyl)methyl)-3-methyl-N-(4-(piperidin-1-yl)benzyl)quinoline-6-carboxamide] | 6.31 | < 6.00 | – | –
4 | C[C@H](c1ncccn1)N(Cc1ccc(C#N)c(Cl)n1)C(=O)c1ccc2nc(N)c(I)cc2c1 [Example 769, (R)-2-amino-N-((6-chloro-5-cyanopyridin-2-yl)methyl)-3-iodo-N-(1-(pyrimidin-2-yl)ethyl)quinoline-6-carboxamide] | 7.28 | 5.30 | – | –
5 | CC[C@H](c1ncccn1)N(Cc1ccc(C#N)cn1)C(=O)c1ccc2nc(N)c(I)cc2c1 [Example 760, (R)-2-amino-N-((5-cyanopyridin-2-yl)methyl)-3-iodo-N-(1-(pyrimidin-2-yl)propyl)quinoline-6-carboxamide] | 7.00 | 5.53 | – | –
6 | COc1ccc(CN(C(=O)c2ccc3nc(N)c(Br)cc3c2)[C@H](C)c2ncccc2F)nn1 [Example 736, 2-amino-3-bromo-N-((1R)-1-(3-fluoro-2-pyridinyl)ethyl)-N-((6-methoxy-3-pyridazinyl)methyl)-6-quinolinecarboxamide] | 6.82 | 5.16 | – | –
7 | Cc1cc2cc(C(=O)N(Cc3ccc(C(F)(F)F)cn3)[C@@H](C)c3ccc(F)cn3)ccc2nc1N (single isomer, unassigned) [Example 485] | 6.13 | 5.33 | – | –
8 | CO[C@@H]1COCC[C@H]1N(Cc1ccc(C(F)(F)F)cn1)C(=O)c1ccc2nc(N)c(C)cc2c1 (mixture of isomers) [Example 748, 2-amino-N-((3R,4S)-3-methoxytetrahydro-2H-pyran-4-yl)-3-methyl-N-((5-(trifluoromethyl)-2-pyridinyl)methyl)-6-quinolinecarboxamide and 2-amino-N-((3S,4R)-3-methoxytetrahydro-2H-pyran-4-yl)-3-methyl-N-((5-(trifluoromethyl)-2-pyridinyl)methyl)-6-quinolinecarboxamide] | – | – | 7.08 | 5.58
9 | 2-amino-N-((1S,2S)-2-methoxy-2,3-dihydro-1H-inden-1-yl)-3-methyl-N-((5-(trifluoromethyl)-2-pyridinyl)methyl)-6-quinolinecarboxamide [Example 753] | – | – | 6.39 | < 5.00
10 | Cc1cc2cc(C(=O)N(Cc3ccc4c(c3)NC(=O)CO4)Cc3ccccc3F)ccc2nc1N [Example 569, 2-amino-N-[(2-fluorophenyl)methyl]-3-methyl-N-[(3-oxo-4H-1,4-benzoxazin-6-yl)methyl] quinoline-6-carboxamide] | 6.48 | 5.15 | – | –
11 | Cc1cc2cc(C(=O)N(CCc3ccon3)Cc3ccc(C(F)(F)F)cn3)ccc2nc1N [Example 585, 2-amino-N-(2-(isoxazol-3-yl)ethyl)-3-methyl-N-((5-(trifluoromethyl)pyridin-2-yl)methyl)quinoline-6-carboxamide] | 6.24 | 4.96 | – | –
12 | C[C@H](c1ncccn1)N(Cc1ccc(Br)nn1)C(=O)c1ccc2nc(N)c(Br)cc2c1 [Example 740, (R)-2-amino-3-bromo-N-((6-bromopyridazin-3-yl)methyl)-N-(1-(pyrimidin-2-yl)ethyl)quinoline-6-carboxamide] | 7.10 | 5.36 | – | –
13 | Cc1cc2cc(C(=O)N(Cc3ccc(C(F)(F)F)cn3)CC(O)C(F)(F)F)ccc2nc1N (stereo not shown) [Example 592, 2-amino-3-methyl-N-(3,3,3-trifluoro-2-hydroxypropyl)-N-((5-(trifluoromethyl)pyridin-2-yl)methyl)quinoline-6-carboxamide] | 6.39 | < 6.00 | – | –
14 | Cc1cc2cc(C(=O)N(Cc3ccc(C(F)(F)F)cn3)Cc3csnn3)ccc2nc1N [Example 564, 2-amino-3-methyl-N-(thiadiazol-4-ylmethyl)-N-[[5-(trifluoromethyl)-2-pyridyl]methyl] quinoline-6-carboxamide] | 6.99 | < 6.00 | – | –
15 | Cc1cc2cc(C(=O)N(Cc3ccccc3F)Cc3c[nH]c4cccnc34)ccc2nc1N [Example 711, 2-amino-N-[(2-fluorophenyl)methy1] -3-methyl-N-(1H-pyrrolo[3,2-b]pyridin-3-ylmethyl)quinoline-6-carboxamide] | 6.55 | 5.01 | – | –
16 | C[C@H](c1ncccn1)N(Cc1ccc(Br)nn1)C(=O)c1ccc2nc(N)c(I)cc2c1 [Example 767, (R)-2-amino-N-((6-bromopyridazin-3-yl)methyl)-3-iodo-N-(1-(pyrimidin-2-yl)ethyl)quinoline-6-carboxamide] | 7.25 | 5.45 | – | –
17 | CCOc1ccc(CN(C(=O)c2ccc3nc(N)c(Br)cc3c2)[C@H](C)c2ncccn2)nn1 [Example 729, 2-amino-3-bromo-N-((6-ethoxy-3-pyridazinyl)methyl)-N-((1R)-1-(2-pyrimidinyl)ethyl)-6-quinolinecarboxamide] | 6.94 | 5.16 | – | –

More lines, now with the values ahead:

Row | pIC50 (HCT116 MTAP null cells; HCT116-MTAP null, 144 h) | pIC50 (HCT116 WT cells; Homo sapiens, HCT-116, 144 h) | pIC50 (HCT116 MTAP null cells) | pIC50 (HCT116 WT cells) | Compound
18 | 7.23 | 5.76 | – | – | C[C@H](c1cscn1)N(Cc1ccc(C(F)(F)F)nn1)C(=O)c1cnc2nc(N)c(Br)cc2c1 (single isomer, unassigned) [Example 787]
19 | 7.77 | 6.34 | – | – | CO[C@@H]1CCOC[C@H]1N(Cc1ccc(C(F)(F)F)cn1)C(=O)c1ccc2nc(N)c(C)cc2c1 (single isomer, unassigned) [Example 782]
20 | 6.36 | 4.76 | – | – | CCOc1ccc(CN(C(=O)c2cnc3nc(N)c(I)cc3c2)[C@H](C)c2ncccn2)nn1 [Example 772, (R)-7-amino-N-((6-ethoxypyridazin-3-yl)methyl)-6-iodo-N-(1-(pyrimidin-2-yl)ethyl)-1,8-naphthyridine-3-carboxamide]
21 | 7.01 | 5.58 | – | – | Cc1cc2cc(C(=O)N(Cc3ccc(C(F)(F)F)nn3)[C@@H]3CCCn4ccnc43)ccc2nc1N (single isomer, unassigned) [Example 813]
22 | 6.26 | 5.17 | – | – | Cc1cc2cc(C(=O)N(Cc3ccc(C(F)(F)F)cn3)C(C)c3cccc(C#N)n3)ccc2nc1N (stereo not shown) [Example 806, 2-amino-N-(1-(6-cyanopyridin-2-yl)ethyl)-3-methyl-N-((5-(trifluoromethyl)pyridin-2-yl)methyl) quinoline-6-carboxamide]
23 | 7.30 | 5.77 | – | – | COc1ccc(CN(C(=O)c2ccc3nc(N)c(C)cc3c2)[C@@H](c2ncccn2)C2CC2)nn1 (single isomer, unassigned) [Example 775]
24 | 6.43 | 5.88 | – | – | Cc1cc2cc(C(=O)N(Cc3ccc(C(F)(F)F)cn3)[C@H]3CCC[C@@H]3OC(F)F)ccc2nc1N (single isomer, unassigned) [Example 817]
25 | 6.64 | 5.42 | – | – | Cc1cc2cc(C(=O)N(Cc3ccc(C(F)(F)F)cn3)C(C)c3ccnc(F)c3)ccc2nc1N (stereo not shown) [Example 797, 2-amino-N-(1-(2-fluoropyridin-4-yl)ethyl)-3-methyl-N-((5-(trifluoromethyl)pyridin-2-yl)methyl)quinoline-6-carboxamide]
26 | 6.06 | < 6.00 | – | – | N#Cc1ccc(CN(C(=O)c2ccc3nc(N)c(Br)cc3c2)C2CCCC2C#N)nc1 (stereo not shown) [Example 827, 2-amino-3-bromo-N-(2-cyanocyclopentyl)-N-((5-cyanopyridin-2-yl)methyl)quinoline-6-carboxamide]
27 | 7.25 | 5.78 | – | – | C[C@H](c1ncccn1)N(Cc1ccc(C(F)(F)F)cn1)C(=O)c1cnc2nc(N)c(I)cc2c1 [Example 838, (R)-7-amino-6-iodo-N-(1-(pyrimidin-2-yl)ethyl)-N-((5-(trifluoromethyl)pyridin-2-yl)methyl)-1,8-naphthyridine-3-carboxamide]
28 | 7.62 | 6.43 | – | – | Cc1cc2cc(C(=O)N(Cc3ccc(C(F)(F)F)cn3)[C@H](C)c3ncon3)ccc2nc1N (single isomer, unassigned) [Example 818]
29 | 6.89 | < 5.00 | – | – | C[C@H](c1ncccn1)N(Cc1cc2c(cn1)OCCC2)C(=O)c1ccc2nc(N)c(I)cc2c1 (single isomer, unassigned) [Example 836]
30 | 6.65 | 5.24 | – | – | Cc1cc2cc(C(=O)N(Cc3ccc(C(F)(F)F)cn3)Cc3ncccc3F)c(Cl)cc2nc1N [Example 804, 2-amino-7-chloro-N-((3-fluoro-2-pyridinyl)methyl)-3-methyl-N-((5-(trifluoromethyl)-2-pyridinyl)methyl)-6-quinolinecarboxamide]
31 | 7.72 | 6.43 | – | – | Cc1cc2cc(C(=O)N(Cc3ccc(C4CC4)cn3)[C@H](C)c3ncccn3)ccc2nc1N [Example 821, (R)-2-amino-N-((5-cyclopropylpyridin-2-yl)methyl)-3-methyl-N-(1-(pyrimidin-2-yl)ethyl)quinoline-6-carboxamide]
32 | 6.22 | < 5.00 | – | – | CNc1ccc(CN(C(=O)c2ccc3nc(N)c(C)cc3c2)[C@H](C)c2ncccc2F)nn1 [Example 824, 2-Amino-N-((1R)-1-(3-fluoro-2-pyridinyl)ethyl)-3-methyl-N-((6-(methylamino)-3-pyridazinyl)methyl)-6-quinolinecarboxamide]
